We go through 1 compound from US20240000698A1, “COMPOSITION COMPRISING FERMENTED EXTRACT FROM PINE FOR PREVENTING SKIN WRINKLE, IMPROVING SKIN BARRIER FUNCTION, PREVENTING HAIR LOSS, PROMOTING HAIR GROWTH AND IMPROVING HAIR HEALTH AND METHOD FOR MANUFACTURING THE SAME” (TaedamBio Co., Ltd., priority 2022, published 2024).

This assay is described as follows: DPPH free radical scavenging activity measurement test. It is filed as biochemical. The procedure:
The free radical scavenging activity measurement test was conducted using 2,2-diphenyl-1-picrylhydrazyl (DPPH) to evaluate the free radical scavenging activity contained in active oxygen, which is one of the antioxidant effects on the fermented pine tree extract obtained by the above method (testing institution: Korea Testing and Research Institute, test number: TNK-2022-000242). The fermented pine extract was prepared at 5, 10, 20, and 30% concentrations using ethanol, and as a positive control material, L-Ascorbic acid was weighed, and was prepared at concentrations of 0.0005, 0.001, 0.0015, and 0.002% using distilled water. Ethanol was used to prepare DPPH at concentrations of 0.2 mM. 100 μL of the preparations for each concentration were dispensed into a 96-well plate, 0.2 mM DPPH and 100 μL of Ethanol were added, and reacted at room temperature for 30 minutes in a light-shielding state, and then absorbance was measured at 517 nm wavelength. The DPPH free radical scavenging activity (%) was calculated using the following formula. Each experimental result was measured three times to calculate the mean and standard deviation, and the confidence interval was set at 95%. [formula] [formula]
On the technique in general: Loss of DPPH colour is used to gauge radical scavenging.

On to `O=C1O[C@H]([C@@H](O)CO)C(O)=C1O` [positive control substance, L-Ascorbic acid], for which the “IC50 (concentration representing 50% activity)” value (DPPH free radical scavenging) was determined as 0.0013%. Further, the “DPPH free radical scavenging activity” value runs as follows: (positive control 0.0015% in distilled water) 57.25%; (positive control 0.002% in distilled water) 77.39%.
